What was measured:
Carbonic anhydrase 9 = Carbonic anhydrase 9 (Homo sapiens, UniProt Q16790); assay: Inhibition of human carbonic anhydrase 9 catalytic site preincubated for 15 mins by stopped flow CO2 hydration assay
Carbonic anhydrase 2 = Carbonic anhydrase 2 (Homo sapiens, UniProt P00918)
Description: Inhibition of human carbonic anhydrase 2 preincubated for 15 mins by stopped flow CO2 hydration assay

Carbonic anhydrase 1 = Carbonic anhydrase 1 (Homo sapiens, UniProt P00915)
Description: Inhibition of human carbonic anhydrase 1 preincubated for 15 mins by stopped flow CO2 hydration assay

HT-29 [1] = assay: Synergistic cytotoxicity in human HT-29 cells assessed as dose reduction index ratio in presence of CoCl2-induced hypoxic conditions measured at 90 % cell growth inhibition after 72 hrs in presence of compound-5c by cell counter method; format: functional
HT-29 [2] = assay: Synergistic cytotoxicity in human HT-29 cells assessed as dose reduction index ratio in presence of CoCl2-induced hypoxic conditions measured at 70 % cell growth inhibition after 72 hrs in presence of compound-5c by cell counter method; format: functional
HT-29 [3] = assay: Synergistic cytotoxicity in human HT-29 cells assessed as dose reduction index ratio in presence of CoCl2-induced hypoxic conditions measured at 80 % cell growth inhibition after 72 hrs in presence of compound-5c by cell counter method; format: functional
[4] = Toxicity in nude mouse xenografted with human HT-29 cells assessed as weight loss at 25 to 50 mg/kg, ip administered qd measured after 16 days; format: organism-based; settings: in vivo, 384 h
HT-29 [5] = assay: Antiproliferative activity against human HT-29 cells assessed as reduction in cell viability after 72 hrs by cell counter method; format: cell-based; settings: HT-29, 72 h
[6] = Toxicity in nude mouse xenografted with human HT-29 cells assessed as clinical toxicity at 25 to 50 mg/kg, ip administered qd measured after 16 days; format: organism-based; settings: in vivo, 384 h
Carbonic anhydrase 7 = Carbonic anhydrase 7 (Homo sapiens, UniProt P43166); assay: Inhibition of human carbonic anhydrase 7 preincubated for 15 mins by stopped flow CO2 hydration assay
Chain of Carbonic anhydrase 7 (P43166 whole entry): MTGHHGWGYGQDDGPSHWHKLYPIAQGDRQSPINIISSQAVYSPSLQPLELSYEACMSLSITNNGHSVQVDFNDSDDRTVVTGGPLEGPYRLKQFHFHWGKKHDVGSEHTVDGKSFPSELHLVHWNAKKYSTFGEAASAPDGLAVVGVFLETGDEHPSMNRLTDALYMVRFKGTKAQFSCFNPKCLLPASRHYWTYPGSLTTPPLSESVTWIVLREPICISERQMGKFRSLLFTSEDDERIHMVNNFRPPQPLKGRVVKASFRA

Chain of Carbonic anhydrase 1 (P00915 whole entry): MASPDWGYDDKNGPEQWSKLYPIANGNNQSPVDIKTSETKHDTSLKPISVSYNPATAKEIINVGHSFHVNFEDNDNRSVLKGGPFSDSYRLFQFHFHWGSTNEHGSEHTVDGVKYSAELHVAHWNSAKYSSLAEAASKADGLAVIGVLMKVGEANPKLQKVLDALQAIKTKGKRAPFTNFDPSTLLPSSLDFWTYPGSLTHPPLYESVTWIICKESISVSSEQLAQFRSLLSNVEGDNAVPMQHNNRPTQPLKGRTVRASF

SMILES | Ki (Carbonic anhydrase 9) [nM] | Ki (Carbonic anhydrase 2) [nM] | Ki (Carbonic anhydrase 1) [nM] | further results
O=C(Nc1ccc2c(c1)S(=O)(=O)NC2=O)c1ccccc1 | 220 | 7270 | > 50000 | 
O=C(Nc1ccc2c(c1)C(=O)NS2(=O)=O)c1cccc(Br)c1 | 31.5 | 3930 |  | 
O=C(Nc1ccc2c(c1)C(=O)NS2(=O)=O)c1ccc(Cl)cc1 | 86.2 | 2300 | > 50000 | 
CCc1c2c(nc3ccc(O)cc13)-c1cc3c(c(=O)n1C2)COC(=O)[C@]3(O)CC [7-ETHYL-10-HYDROXYCAMPTOTHECIN] |  |  |  | Ratio (HT-29 [1]): 7.395; Ratio (HT-29 [2]): 0.866; Ratio (HT-29 [3]): 2.039
O=C(Nc1cccc2c1C(=O)NS2(=O)=O)c1ccccc1 | 223 | 184 | > 50000 | 
O=C(Nc1ccc2c(c1)S(=O)(=O)NC2=O)c1cccc(Br)c1 | 665 | 837 | > 50000 | 
O=C(Nc1ccc2c(c1)S(=O)(=O)NC2=O)c1cccc(Cl)c1 | 233 | 6020 | > 50000 | 
O=C(Nc1ccc2c(c1)C(=O)NS2(=O)=O)c1cccc(Cl)c1 | 67.9 | 589 |  | Activity [4]: Non-Toxic; IC50 (HT-29 [5]): > 100000 nM; Activity [6]: Non-Toxic
O=C(Nc1ccc2c(c1)C(=O)NS2(=O)=O)c1ccc(-c2ccccc2)cc1 | 231 | 82.9 | > 50000 | 
COc1ccc(C(=O)Nc2ccc3c(c2)C(=O)NS3(=O)=O)cc1 | 74 | 790 |  | 
CC(=O)Nc1ccc2c(c1)C(=O)NS2(=O)=O | 30.4 | 1480 |  | IC50 (HT-29 [5]): > 100000 nM; Ki (Carbonic anhydrase 7): > 50000 nM
Cc1ccc(C(=O)Nc2ccc3c(c2)S(=O)(=O)NC3=O)cc1 | 539 | 411 | > 50000 | 
O=C(Nc1ccc2c(c1)S(=O)(=O)NC2=O)c1ccc(Cl)cc1 | 1920 | 4670 | > 50000 | 
O=C(Nc1ccc2c(c1)S(=O)(=O)NC2=O)c1ccc(F)cc1 | 543 | 908 | > 50000 | 
O=c1[nH]cc(F)c(=O)[nH]1 [FLUOROURACIL] |  |  |  | Ratio (HT-29 [1]): 89.952; Ratio (HT-29 [2]): 5.017; Ratio (HT-29 [3]): 15.884
O=C(Nc1ccc2c(c1)C(=O)NS2(=O)=O)c1ccc(F)cc1 | 27.2 | 6880 |  | 
O=C(Nc1cccc2c1C(=O)NS2(=O)=O)c1ccc(-c2ccccc2)cc1 | 1190 | 910 | > 50000 | 
COc1ccc(C(=O)Nc2ccc3c(c2)S(=O)(=O)NC3=O)cc1 | 205 | 6940 | > 50000 | 
O=C(Nc1cccc2c1C(=O)NS2(=O)=O)c1cccc(Br)c1 | 31.2 | 593 |  | IC50 (HT-29 [5]): > 100000 nM; Ki (Carbonic anhydrase 7): > 50000 nM
